Measurements as given in ChEMBL document CHEMBL1155619, “Kurstakins: a new class of lipopeptides isolated from Bacillus thuringiensis” (2000).
Active and inactive are the calls of the source. The rule behind the calls is not given here. Starred links: 1 amine or outer side, 2 acyl side, 3 side chain; linkers in the order of their positions; H or OH if unused. Positions of bridges follow the written chain, without caps; N, C: chain ends. Non-standard residues stand in square brackets, D forms with d. Residues, ends and D or L forms follow the SMILES beside them. X1 = CC(C)CCCCCCCCC[C@H](CC(=O)[*:1])O[*:2]

System: Stachybotrys chartarum
Assay: Antifungal activity against Stachybotrys charatum assessed as zone of inhibition at 80 ug after 24 hrs
Format: functional

For `CC(C)CCCCCCCCC[C@@H]1CC(=O)N[C@@H](CCC(=O)O)C(=O)N[C@@H](CC(C)C)C(=O)N[C@H](CC(C)C)C(=O)N[C@@H](C(C)C)C(=O)N[C@@H](CC(=O)O)C(=O)N[C@H](CC(C)C)C(=O)N[C@@H](CC(C)C)C(=O)O1` (EL[dL]VD[dL]L; linker N-C via X1), the Activity was “inactive”.
